Experiments:
[1] = tested on: primary human fibroblasts derived from IPF patients (LL29 cells); assay: Inhibition of fibrosis: TGF-β1-treated primary human fibroblasts from IPF patients (LL29), αSMA staining; format: cell-based; conditions: Fibroblast, 96 h, TGF-β1 20 ng/mL, 4 days, % αSMA-positive cells
From the text: The above synthesized compounds were screened using primary human fibroblasts (derived from IPF patients) treated with TGF-β1 to determine their ability to inhibit the fibrotic process.
Primary human fibroblasts derived from IPF patients (LL29 cells) [^1Xiaoqiu Liu, et. al., “Fibrotic Lung Fibroblasts Show Blunted Inhibition by cAMP Due to Deficient cAMP Response Element-Binding Protein Phosphorylation”, Journal of Pharmacology and Experimental Therapeutics (2005), 315(2), 678-687; ^2Watts, K. L., et. al., “RhoA signaling modulates cyclin D1 expression in human lung fibroblasts; implications for idiopathic pulmonary fibrosis”, Respiratory Research (2006), 7(1), 88] were obtained from American Type Culture Collection (ATCC) and expanded in F12 medium supplemented with 15% Fetal Bovine Serum and Penicillin/Streptomycin.
Each compound was dissolved in DMSO as a 10 mM stock and used to prepare compound source plates. Serial dilution (1:2, 11-point dose-response curves from 10 μM to 1.87 nM) and compound transfer was performed using the ECHO 550 (Labcyte, Sunnyvale, Calif.) into 384-well clear bottom assay plates (Greiner Bio-One) with appropriate DMSO backfill for a final DMSO concentration of 0.1%. LL29 cells were plated at 1,500 cells/well in 80 μl/well F12 medium supplemented with 1% Fetal Bovine Serum. One hour after addition of the cells, TGF-β1 (Peprotech; 20 ng/mL) was added to the plates to induce fibrosis (ref 1 and 2 above). Wells treated with TGF-β1 and containing DMSO were used as controls. Cells were incubated at 37° C. and 5% CO2 for 4 days. Following incubation for 4 days, SYTOX green nucleic acid stain (Life Technologies [Thermo Fisher Scientific]) was added to the wells at a final concentration of 1 uM and incubated at room temperature for 30 min. Cells were then fixed using 4% formaldehyde (Electron Microscopy Sciences), washed 3 times with PBS followed by blocking and permeabilization using 3% Bovine Serum Albumin (BSA; Sigma) and 0.3% Triton X-100 (Sigma) in PBS. Cells were then stained with antibody specific to α-smooth muscle actin (αSMA; Abcam) (ref 1 and 2 above) in 3% Bovine Serum Albumin (BSA; Sigma) and 0.3% Triton X-100 (Sigma) in PBS, and incubated overnight at 4° C. Cells were then washed 3 times with PBS, followed by incubation with Alexa Flor-647 conjugated secondary antibody (Life Technologies [Thermo Fisher Scientific]) and DAPI at room temperature for 1 hour. Cells were then washed 3 times with PBS and plates were sealed for imaging. αSMA staining was imaged by excitation at 630 nm and emission at 665 nm and quantified using the Compartmental Analysis program on the CellInsight CX5 (Thermo Scientific). Dead or apoptotic cells were excluded from analysis based on positive SYTOX green staining. % of total cells positive for αSMA were counted in each well and normalized to the average of 11 wells treated with TGF-β1 on the same plate using Dotmatics' Studies Software. The normalized averages (fold change over untreated) of 3 replicate wells for each compound concentration were used to create dose-responses curves and EC50 values were calculated using non-linear regression curve fit in the Dotmatics' Studies Software. The EC50 values are reported.

[2] = tested on: Wnt activity (Sp5-Luc reporter, SW480 colon carcinoma cells); assay: Screening assay for Wnt activity: Sp5-Luc reporter gene assay in SW480 cells; format: cell-based; conditions: Homo sapiens, 42 h incubation, luminescence
Outline: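 IC50 values come from variable-slope four-parameter fits of luciferase signal normalized to DMSO wells. Stable Sp5-Luc reporter SW480 colon carcinoma cells were exposed to compounds in a 3-fold dilution series (source plates from 10 mM stock) for forty-two hours at 37 °C.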

With `O=C(Nc1cncc(-c2ccc3[nH]nc(-c4nc5c(-c6ccc(F)cc6)nccc5[nH]4)c3c2)c1)C1CCC1` [Compound 46, N-(5-(3-(4-(4-Fluorophenyl)-1H-imidazo[4,5-c]pyridin-2-yl)-1H-indazol-5-yl)pyridin-3-yl)cyclobutanecarboxamide] the EC50 [1] was 9 nM and the IC50 [2] was 10 nM.
`O=C(Nc1cncc(-c2ccc3[nH]nc(-c4nc5c(-c6ccsc6)nccc5[nH]4)c3c2)c1)c1ccccc1` [Compound 245, N-(5-(3-(4-(Thiophen-3-yl)-1H-imidazo[4,5-c]pyridin-2-yl)-1H-indazol-5-yl)pyridin-3-yl)benzamide] was tested, and the EC50 [1] was 17 nM and the IC50 [2] was 40 nM.
`O=C(Cc1ccccc1)Nc1cncc(-c2ccc3[nH]nc(-c4nc5c(-c6ccsc6)nccc5[nH]4)c3c2)c1` [Compound 244, 2-Phenyl-N-(5-(3-(4-(thiophen-3-yl)-1H-imidazo[4,5-c]pyridin-2-yl)-1H-indazol-5-yl)pyridin-3-yl)acetamide] gave an EC50 [1] of 203 nM and an IC50 [2] of 69.1 nM.
Compound `c1cc2[nH]c(-c3n[nH]c4ccc(-c5cncc(CNCC6CCCC6)c5)cc34)nc2c(-c2ccoc2)n1` [Compound 284, 1-Cyclopentyl-N-((5-(3-(4-(furan-3-yl)-1H-imidazo[4,5-c]pyridin-2-yl)-1H-indazol-5-yl)pyridin-3-yl)methyl)methanamine] has an EC50 [1] of 9 nM and an IC50 [2] of over 10000 nM.
For `Cn1cc(-c2ccc3[nH]nc(-c4nc5c(-c6cccc(F)c6)nccc5[nH]4)c3c2)cn1` [Compound 1772, 4-(3-Fluorophenyl)-2-(5-(1-methyl-1H-pyrazol-4-yl)-1H-indazol-3-yl)-1H-imidazo[4,5-c]pyridine], the EC50 [1] was 9990 nM and the IC50 [2] was 11 nM.
In the case of `CN1CCN(c2nccc3[nH]c(-c4n[nH]c5ccc(-c6cncnc6)cc45)nc23)CC1` [Compound 234, 4-(4-Methylpiperazin-1-yl)-2-(5-(pyrimidin-5-yl)-1H-indazol-3-yl)-1H-imidazo[4,5-c]pyridine], the EC50 [1] is reported as 280 nM and the IC50 [2] is reported as 21 nM.
Work on `CN(C)CCOc1cncc(-c2ccc3[nH]nc(-c4nc5c(-c6cccc(F)c6)nccc5[nH]4)c3c2)c1` [Compound 1779, 2-((5-(3-(4-(3-Fluorophenyl)-1H-imidazo[4,5-c]pyridin-2-yl)-1H-indazol-5-yl)pyridin-3-yl)oxy)-N,N-dimethylethan-1-amine] yielded an EC50 [1] of 41 nM and an IC50 [2] of 192 nM.
Compound `CC(C)CC(=O)Nc1cncc(-c2ccc3[nH]nc(-c4nc5c(-c6ccc(F)cc6)nccc5[nH]4)c3c2)c1` [Compound 28, N-(5-(3-(4-(4-Fluorophenyl)-1H-imidazo[4,5-c]pyridin-2-yl)-1H-indazol-5-yl)pyridin-3-yl)-3-methylbutanamide] has an EC50 [1] of 9 nM and an IC50 [2] of 9 nM.
In the case of `CN1CCN(c2nccc3[nH]c(-c4n[nH]c5ccc(-c6cncc(CN7CCCCC7)c6)cc45)nc23)CC1` [Compound 223, 4-(4-Methylpiperazin-1-yl)-2-(5-(5-(piperidin-1-ylmethyl)pyridin-3-yl)-1H-indazol-3-yl)-1H-imidazo[4,5-c]pyridine], the EC50 [1] is reported as 1110 nM and the IC50 [2] is reported as 172 nM.
`NC1CN(c2cncc(-c3ccc4[nH]nc(-c5nc6c(-c7cccc(F)c7)nccc6[nH]5)c4c3)n2)C1` [Compound 1774, 1-(6-(3-(4-(3-Fluorophenyl)-1H-imidazo[4,5-c]pyridin-2-yl)-1H-indazol-5-yl)pyrazin-2-yl)azetidin-3-amine] showed an EC50 [1] of 102 nM and an IC50 [2] of 171 nM.
`c1cncc(-c2nccc3[nH]c(-c4n[nH]c5ccc(-c6cncc(CN7CCCCC7)c6)cc45)nc23)c1` [Compound 93, 2-(5-(5-(Piperidin-1-ylmethyl)pyridin-3-yl)-1H-indazol-3-yl)-4-(pyridin-3-yl)-1H-imidazo[4,5-c]pyridine] was tested, and the EC50 [1] was 388 nM and the IC50 [2] was 318 nM.
`c1ccc(-c2nccc3[nH]c(-c4n[nH]c5ccc(-c6cncc(CNCC7CCCC7)c6)cc45)nc23)nc1` [Compound 154, 1-Cyclopentyl-N-((5-(3-(4-(pyridin-2-yl)-1H-imidazo[4,5-c]pyridin-2-yl)-1H-indazol-5-yl)pyridin-3-yl)methyl)methanamine] was tested, and the EC50 [1] was 61 nM and the IC50 [2] was 61 nM.
For `Fc1ccc(-c2nccc3[nH]c(-c4n[nH]c5ccc(-c6cncc(CN7CCCC7)c6)cc45)nc23)s1` [Compound 326, 4-(5-Fluorothiophen-2-yl)-2-(5-(5-(pyrrolidin-1-ylmethyl)pyridin-3-yl)-1H-indazol-3-yl)-1H-imidazo[4,5-c]pyridine], the EC50 [1] was 940 nM and the IC50 [2] was 284 nM.
For `Fc1cccc(-c2nccc3[nH]c(-c4n[nH]c5ccc(-c6cncc(OC7CCCCC7)c6)cc45)nc23)c1` [Compound 1775, 2-(5-(5-(Cyclohexyloxy)pyridin-3-yl)-1H-indazol-3-yl)-4-(3-fluorophenyl)-1H-imidazo[4,5-c]pyridine], the EC50 [1] was 9 nM and the IC50 [2] was 252 nM.
In the case of `CCCC(=O)Nc1cncc(-c2ccc3[nH]nc(-c4nc5c(-c6ccccc6F)nccc5[nH]4)c3c2)c1` [Compound 69, N-(5-(3-(4-(2-Fluorophenyl)-1H-imidazo[4,5-c]pyridin-2-yl)-1H-indazol-5-yl)pyridin-3-yl)butyramide], the EC50 [1] is reported as 74 nM and the IC50 [2] is reported as 5 nM.
With `Fc1cccc(-c2nccc3[nH]c(-c4n[nH]c5ccc(-c6ccccn6)cc45)nc23)c1` [Compound 1785, 4-(3-Fluorophenyl)-2-(5-(pyridin-2-yl)-1H-indazol-3-yl)-1H-imidazo[4,5-c]pyridine] the EC50 [1] was 9 nM and the IC50 [2] was 633 nM.
Compound `FC1(F)CCN(Cc2cncc(-c3ccc4[nH]nc(-c5nc6c(-c7cccs7)nccc6[nH]5)c4c3)c2)C1` [Compound 311, 2-(5-(5-((3,3-Difluoropyrrolidin-1-yl)methyl)pyridin-3-yl)-1H-indazol-3-yl)-4-(thiophen-2-yl)-1H-imidazo[4,5-c]pyridine] has an EC50 [1] of 83 nM and an IC50 [2] of 320 nM.
In the case of `CC(C)C(=O)Nc1cncc(-c2ccc3[nH]nc(-c4nc5c(-c6ccccc6F)nccc5[nH]4)c3c2)c1` [Compound 61, N-(5-(3-(4-(2-Fluorophenyl)-1H-imidazo[4,5-c]pyridin-2-yl)-1H-indazol-5-yl)pyridin-3-yl)isobutyramide], the EC50 [1] is reported as 79 nM and the IC50 [2] is reported as 5 nM.
Work on `CN(C)CC(=O)Nc1cncc(-c2ccc3[nH]nc(-c4nc5c(-c6cccc(F)c6)nccc5[nH]4)c3c2)c1` [Compound 2251, 2-(Dimethylamino)-N-(5-(3-(4-(3-fluorophenyl)-1H-imidazo[4,5-c]pyridin-2-yl)-1H-indazol-5-yl)pyridin-3-yl)acetamide] yielded an EC50 [1] of 75 nM and an IC50 [2] of 124 nM.
`O=C(Nc1cncc(-c2ccc3[nH]nc(-c4nc5c(-c6cccc(F)c6)nccc5[nH]4)c3c2)c1)C1CC1` [Compound 19, N-(5-(3-(4-(3-Fluorophenyl)-1H-imidazo[4,5-c]pyridin-2-yl)-1H-indazol-5-yl)pyridin-3-yl)cyclopropanecarboxamide] was tested, and the EC50 [1] was 9 nM and the IC50 [2] was 1 nM.
For `Fc1ccc(-c2nccc3[nH]c(-c4n[nH]c5ccc(-c6cncc(CN7CCCC7)c6)cc45)nc23)cc1` [Compound 40, 4-(4-Fluorophenyl)-2-(5-(5-(pyrrolidin-1-ylmethyl)pyridin-3-yl)-1H-indazol-3-yl)-1H-imidazo[4,5-c]pyridine], the EC50 [1] was 24 nM and the IC50 [2] was 75 nM.
With `Fc1cccc(-c2nccc3[nH]c(-c4n[nH]c5ccc(-c6cn[nH]c6)cc45)nc23)c1` [Compound 1771, 2-(5-(1H-Pyrazol-4-yl)-1H-indazol-3-yl)-4-(3-fluorophenyl)-1H-imidazo[4,5-c]pyridine] the EC50 [1] was 9990 nM and the IC50 [2] was 4 nM.
Work on `Cc1cn(-c2nccc3[nH]c(-c4n[nH]c5ccc(-c6cncc(NC(=O)C7CCC7)c6)cc45)nc23)cn1` [Compound 202, N-(5-(3-(4-(4-Methyl-1H-imidazol-1-yl)-1H-imidazo[4,5-c]pyridin-2-yl)-1H-indazol-5-yl)pyridin-3-yl)cyclobutanecarboxamide] yielded an EC50 [1] of 13 nM and an IC50 [2] of under 1 nM.

Source: US10081631B2, “2-(1H-indazol-3-yl)-1H-imidazo[4,5-C]pyridine and therapeutic uses thereof” (Samumed, LLC, priority 2014, dated 2018)
